In patent US10047345B2, “Culturing of mesenchymal stem cells with FGF4 and nicotinamide” (Gamida-Cell Ltd., priority 2012, dated 2018):

Legend:
Type in all cases: cell-based, human
[1] = tested on: mesenchymal stem cells; assay: Large batch and serum batch MSC culture with nicotinamide (cell count)
Protocol: Cell number was measured using Cedex Automated Cell Counter (Innovatis). The cells were diluted 1:2 in Trypan Blue (Sigma) and cell number was measured automatically under microscope. Mesenchymal stem cells were isolated using plastic adherence method, as described above and cultured for several passages with fetal bovine serum, ±NAM. The cells were selected in the presence of NAM. At about 80% confluence, adherent cells were collected following trypsin treatment, counted, characterized and re-seeded at a concentration of 1×10^3 cells/cm^2.

[2] = tested on: mesenchymal stem cells; assay: Surface expression of VCAM1/CD106 and CD54 by FACS; settings: versus MSCs grown without nicotinamide
Protocol: Mesenchymal stem cells were isolated using plastic adherence method, as described above and cultured for several passages with fetal bovine serum, ±NAM. The cells were selected in the presence of NAM. At about 80% confluence, adherent cells were collected following trypsin treatment, counted, characterized and re-seeded at a concentration of 1×10^3 cells/cm^2. Following Trypsin treatment the cells were analyzed for CD 106 expression in FACS using anti-human CD 106 PE antibodies. Following Trypsin treatment the cells were analyzed for CD54 expression in FACS using anti-human CD54 antibodies.

[3] = tested on: bone marrow derived mesenchymal stem cells; assay: Seeding, expansion, size and granularity of bone marrow derived MSCs with nicotinamide
Protocol: Bone marrow derived and adipose tissue derived mesenchymal cells were isolated based on their plastic adherence potential in expansion medium containing: High glucose DMEM and 10% Fetal Bovine Serum (FBS, Hyclone, Logan, Utah, USA) supplemented with 0.05 mg/ml Gentamicin (Sigma) and 2 mM L-glutamine (Biological Industries, Israel). Cells were allowed to adhere for 3-4 days and non-adherent cells were washed out with medium changes. The medium was further exchanged with fresh medium every 3-4 days. Once adherent cells reached approximately 80-90% confluency, they were detached with 0.25% trypsin-EDTA (Sigma), washed twice in DMEM and 10% Fetal Bovine Serum, with centrifugation, 400 g, 5 minutes, and replated at a 1:2 to 1:1000 dilution under the same culture conditions. Cell size was measured using Cedex Automated Cell Counter (Innovatis). The cells were diluted 1:2 in Trypan Blue (Sigma) and cell size was measured automatically under microscope. Following trypsin treatment, the cells were analyzed for granularicity by side scatter FACS. Cell number was measured using Cedex Automated Cell Counter (Innovatis). The cells were diluted 1:2 in Trypan Blue (Sigma) and cell number was measured automatically under microscope. […] At each passage and at each medium exchange, the cultures were supplemented with mesenchymal medium, nicotinamide and growth factors.

## NC(=O)c1cccnc1 [nicotinamide, Nicotinamide]
[1]; large batch culture
  effect on cell count in large batches of MSCs: evident on large batches
[1]; one of two experiments
  dependence of the proliferative effect on serum batch: not dependent on a particular batch of serum
[2]
  CD54 expression: express less CD54
  VCAM1/CD106 expression: express more VCAM1/CD106
[3]
  seeding efficacy (selection) of bone marrow derived MSCs: increased the seeding efficacy
[3]; 0.1 mM nicotinamide, figure not shown
  expansion rate of bone marrow derived MSCs at low nicotinamide concentration: insignificant effect
[3]; identical conditions without nicotinamide as comparison
  cell size and granularity of MSCs versus culture without nicotinamide: smaller and less granular
[3]; nicotinamide added from initiation of culture and at each passage
  doubling time of MSCs: decreased
